From patent publication US11291655B2, “RAD51 inhibitors” (Cyteir Therapeutics, Inc., priority 2017, dated 2022) come the findings set out here.

Structures are written as SMILES.

The first test concerns Daudi Cell Culture. The test is described as follows: Compound primary screening in Daudi cell culture. The format is cell-based. Particulars: Daudi cells, 1250 cells per well, reads on Day 7. On the procedure:
Compound Primary Screening
1. Materials and Supplies
Plastic ware and consumables needed for this experiment include: Cell Culture media; Evaporation Buffer media; 100% DMSO; 96 well U-bottom sterile culture plates; 250 mL bottle; 1.5 mL Opaque amber epi tubes; Epi Tube rack; 300 mL reservoirs; 25 mL reservoir; 25 mL serological pipette tips; 5 mL serological pipette tips P1000 Pipette Tips; and P200 Pipette Tips.
Equipment needed for this experiment include: Viaflo 384 liquid handler; Eppendorf serological pipette; Eppendorf P1000 Pipette; and Eppendorf P200 Pipette
Daudi Cell Culture is also needed for this experiment.
Lastly, compounds (e.g., the compounds of this invention) to be tested are needed.
All steps were performed in a sterile environment inside the Biosafety cabinet.
A 96 well u-bottom plate was prepared by writing the experiment number, plate number, date and initials in the top right corner of the plate lid. With a sterile 300 ml reservoir, and 25 ml serological pipette, evaporation buffer media was pipetted into reservoir in 25 ml increments. Using the liquid handler, 150 ul of evaporation buffer media was pipetted from reservoir into rows A and H, and Columns 1 and 12 of the 96 well u-bottom plate. Cell cultures were counted to obtain the density of cells per ml, and the culture viability. The cell density information was used to obtain 1,000,000 cells from culture using a 5 mL serological pipette into an epi tube. The cell density information from the culture was used to calculate the number of cells and volume of media needed for the assay to seed 1250 cells in 130 ul of media per available culture well in the 96 well u-bottom plate. Rows B through F were used for cells (50 wells in total), with row G left for an empty media control. The calculation was overestimated by 10 mL to account for the dead volume in the 300 ml reservoir. Once the media volume was calculated, the appropriate volume of media was pipetted in 25 mL increments into the 250 mL bottle using a 25 mL serological pipette. The 250 ml bottle was capped tightly, and placed into a 37° C. water bath for 2 minutes. While the culture media was warming, 10 mL of fresh media was pipetted from the 500 mL culture media bottle into a sterile 25 mL reservoir. Using the Eppendorf multichannel pipette, 130 ul of media was pipetted from the 25 mL reservoir into row G of the 96 well u-bottom plate. Once the 250 mL bottle of media was warmed, the volume of culture needed was pipetted into the bottle, and mixed gently with a 25 mL serological pipette as to not create bubbles, and then the contents of the bottle were pipetted into a new 300 mL reservoir. Using the liquid handler, 130 ul of culture was pipetted from the 300 mL reservoir into rows B through F of the 96 well u-bottom plate. Once the culture was added, the plate was placed into a 37° C. incubator until the compound master plate was prepared for use.
Two 96 well u-bottom plates were prepared by writing the master plate name in the upper right corner of the plate lid. Labeling one DMSO master and the other Media Master. The compounds of interest were obtained from the laboratory freezer, and placed into a 25 well storage box with a lid, and set the box aside. The compounds were vortexed after thawing but before use. Using an automatic multichannel pipette, 20 ul of 100% DMSO was pipetted into wells B3-B11 through G3-G11 of the DMSO master plate. For each compound on the master plate, 50 ul of the compound were pipetted in the appropriate well of row 2 (reference plate map to determine appropriate well). A serial dilution was prepared beginning by aspirating 20 ul from row 2 and mixing with row 3, repeating until row 11 was reached. Using the liquid handler, 194 ul of Daudi media was dispensed into wells B2-B11 through G2-G11 of the Media master plate. Using the liquid handler, 6 ul from the DMSO master plate was aspirated and dispensed into the media master plate, mixing 100 ul twice. […]
With `Cc1cc(-c2ncc(-c3ccc(N4CCCC4=O)cc3S(=O)(=O)NC(C)(C)C)s2)ccc1NC(=O)OC(C)C` [Compound J17], the “EC50 (μM)” value is listed as “FAIL”.

Staying with this test, now noted: Homo sapiens, 168 h; Daudi cells, 1250 cells per well, reads on Day 7.
For the compound `CC(C)OC(=O)Nc1ccc(-c2ncc(-c3ccc(O)cc3S(=O)(=O)NC(C)(C)C)s2)cc1` [Compound I2, isopropyl N-[4-[5-[2-(tert-butylsulfamoyl)-4-hydroxy-phenyl]thiazol-2-yl]phenyl]carbamate], the EC50 (commonly the concentration that produces a half-maximal response) is under 5 µM.
In the case of `CC(C)OC(=O)Nc1ccc(-c2ncc(-c3ccc(NCC(F)(F)F)cc3S(=O)(=O)NC(C)(C)C)s2)cc1` [Compound I3, isopropyl N-[4-[5-[2-(tert-butylsulfamoyl)-4-(2,2,2-trifluoroethylamino)phenyl]thiazol-2-yl]phenyl]carbamate], the EC50 was under 5 µM.
`CC(C)OC(=O)Nc1ccc(-c2ncc(-c3ccc(NC4(C)COC4)cc3S(=O)(=O)NC(C)(C)C)s2)cc1` [Compound I4] had an EC50 of under 5 µM.
`CNC(=O)c1ccc(-c2cnc(-c3ccc(NC(=O)OC(C)C)cc3)s2)c(S(=O)(=O)NC(C)(C)C)c1` [Compound I5] came in with a concentration for a half-maximal effect (EC50) of under 5 µM.
Take `CC(C)OC(=O)Nc1ccc(-c2ncc(-c3ccc(C(N)=O)cc3S(=O)(=O)NC(C)(C)C)s2)cc1` [Compound I6]: the concentration for a half-maximal effect (EC50) is under 5 µM.
Still for that read-out and setting: then `CC(C)OC(=O)Nc1ccc(-c2ncc(-c3ccc(CO)cc3S(=O)(=O)NC(C)(C)C)s2)cc1` [Compound J1], with under 5 µM; and `CC(C)OC(=O)Nc1ccc(-c2ncc(-c3ccc(-c4ccn[nH]4)cc3S(=O)(=O)NC(C)(C)C)s2)cc1` [Compound J2], with under 5 µM.
`CC(C)OC(=O)Nc1ccc(-c2ncc(-c3ccc(NC(C)C(F)(F)F)cc3S(=O)(=O)NC(C)(C)C)s2)cc1` (stereo not shown) [Compound J3, isopropyl N-[4-[5-[2-(tert-butylsulfamoyl)-4-[(2,2,2-trifluoro-1-methyl-ethyl)amino]phenyl]thiazol-2-yl]phenyl]carbamate] showed an EC50 of under 5 µM.
Consider `CC(C)OC(=O)Nc1ccc(-c2ncc(-c3ccc(N4CCCC4=O)cc3S(=O)(=O)NC(C)(C)C)s2)cc1` [Compound J4], for which the concentration giving a half-maximal response (EC50) was under 5 µM.
On to `CC(=O)Nc1ccc(-c2cnc(-c3ccc(NC(=O)OC(C)C)nc3)s2)c(S(=O)(=O)NC(C)(C)C)c1` [Compound J5], for which the half-maximal effective concentration (EC50) was under 1 µM.
On to `CC(C)OC(=O)Nc1ccc(-c2ncc(-c3ccc(C(F)(F)F)cc3S(=O)(=O)NC(C)(C)C)s2)cc1` [Compound J6], for which the EC50 was under 10 µM.
For the compound `CC(C)NC(=O)Nc1ccc(-c2ncc(-c3ccc(N4CCCC4=O)cc3S(=O)(=O)NC(C)(C)C)s2)cc1` [Compound J7], the EC50 is under 10 µM.
`CC(C)OC(=O)N(C)c1ccc(-c2ncc(-c3ccc(N4CCCC4=O)cc3S(=O)(=O)NC(C)(C)C)s2)cc1` [Compound J8, isopropyl N-[4-[5-[2-(tert-butylsulfamoyl)-4-(2-oxopyrrolidin-1-yl)phenyl]thiazol-2-yl]phenyl]-N-methyl-carbamate]: the concentration for a half-maximal effect (EC50) was under 10 µM.
As for `CC(C)OC(=O)Nc1ccc(-c2ncc(-c3ccc(N4CCCC4=O)cc3S(=O)(=O)NC(C)(C)C)s2)cc1F` [Compound J9, isopropyl N-[4-[5-[2-(tert-butylsulfamoyl)-4-(2-oxopyrrolidin-1-yl)phenyl]thiazol-2-yl]-2-fluoro-phenyl]carbamate], the concentration giving a half-maximal response (EC50) is under 5 µM.
Take `CC(=O)Nc1ccc(-c2cnc(-c3ccc(NCC(C)O)cc3)s2)c(S(=O)(=O)NC(C)(C)C)c1` (stereo not shown) [Compound J11]: the EC50 was over 10 µM.
Regarding `CC(=O)Nc1ccc(-c2cnc(-c3ccc(NCC(C)(C)O)cc3)s2)c(S(=O)(=O)NC(C)(C)C)c1` [Compound J12, N-[3-(tert-butylsulfamoyl)-4-[2-[4-[(2-hydroxy-2-methyl-propyl)amino]phenyl]thiazol-5-yl]phenyl]acetamide], the EC50 was over 10 µM.
`CC(=O)Nc1ccc(-c2cnc(-c3ccc(N4CC(C)(C)OC4=O)cc3)s2)c(S(=O)(=O)NC(C)(C)C)c1` [Compound J13] gave an EC50 of over 10 µM.
As to `CC(=O)Nc1ccc(-c2cnc(-c3cccc(NC(=O)OC(C)C)c3)s2)c(S(=O)(=O)NC(C)(C)C)c1` [Compound J14], the EC50 was under 10 µM.
With `CC(C)NC(=O)Nc1ccc(-c2ncc(-c3ccc(NS(C)(=O)=O)cc3S(=O)(=O)NC(C)(C)C)s2)cc1` [Compound J15], the EC50 was over 10 µM.
Compound `COc1cc(-c2ncc(-c3ccc(N4CCCC4=O)cc3S(=O)(=O)NC(C)(C)C)s2)ccc1NC(=O)OC(C)C` [Compound J16] had an EC50 of under 10 µM.
Take `CC(C)OC(=O)Nc1ccc(-c2ncc(-c3ccc(N(C)S(C)(=O)=O)cc3S(=O)(=O)NC(C)(C)C)s2)cc1` [Compound J18]: the EC50 is under 5 µM.
In turn, `CC(=O)Nc1ccc(-c2cnc(-c3ccc(N4CCOC4=O)cc3)s2)c(S(=O)(=O)NC(C)(C)C)c1` [Compound J19, N-[3-(tert-butylsulfamoyl)-4-[2-[4-(2-oxooxazolidin-3-yl)phenyl]thiazol-5-yl]phenyl]acetamide] yielded a 50% effective concentration (EC50) of over 10 µM.
On to `CC(C)OC(=O)Nc1ccc(-c2ncc(-c3ccc(N4CCN(Cc5ccccc5)C4=O)cc3S(=O)(=O)NC(C)(C)C)s2)cc1` [Compound J21], for which the 50% effective concentration (EC50) was over 10 µM.
Regarding `CC(C)NC(=S)Nc1ccc(-c2ncc(-c3ccc(N4CCN(Cc5ccccc5)C4=O)cc3S(=O)(=O)NC(C)(C)C)s2)cc1` [Compound J22], the half-maximal effective concentration (EC50) was over 10 µM.
On the same count and under the same terms, then `CC(C)OC(=O)Nc1ccc(-c2ncc(-c3ccc(N4CCOC4=O)cc3S(=O)(=O)NC(C)(C)C)s2)cc1` [Compound J23, isopropyl N-[4-[5-[2-(tert-butylsulfamoyl)-4-(2-oxooxazolidin-3-yl)phenyl]thiazol-2-yl]phenyl]carbamate], with under 5 µM.
As for `CC(C)OC(=O)Nc1ccc(-c2ncc(-c3ccc(N4CCCOC4=O)cc3S(=O)(=O)NC(C)(C)C)s2)cc1` [Compound J24, isopropyl N-[4-[5-[2-(tert-butylsulfamoyl)-4-(2-oxo-1,3-oxazinan-3-yl)phenyl]thiazol-2-yl]phenyl]carbamate], the EC50 was under 5 µM.
Still for that read-out and setting: then `CC(O)CNc1ccc(-c2cnc(-c3ccc(NC(=O)OC(C)C)cc3)s2)c(S(=O)(=O)NC(C)(C)C)c1` (stereo not shown) [Compound J25, isopropyl N-[4-[5-[2-(tert-butylsulfamoyl)-4-(2-hydroxypropylamino)phenyl]thiazol-2-yl]phenyl]carbamate], with under 5 µM; and `CC(C)OC(=O)Nc1ccc(-c2ncc(-c3ccc(N4CC(C)OC4=O)cc3S(=O)(=O)NC(C)(C)C)s2)cc1` (stereo not shown) [Compound J26, isopropyl (4-(5-(2-(N-(tert-butyl)sulfamoyl)-4-(5-methyl-2-oxooxazolidin-3-yl)phenyl)thiazol-2-yl)phenyl)carbamate], with under 10 µM.
Compound `CC(C)OC(=O)Nc1ccc(-c2ncc(-c3ccc(N4CC(Cc5ccccc5)OC4=O)cc3S(=O)(=O)NC(C)(C)C)s2)cc1` (stereo not shown) [Compound J27, isopropyl (4-(5-(4-(5-benzyl-2-oxooxazolidin-3-yl)-2-(N-(tert-butyl)sulfamoyl)phenyl)thiazol-2-yl)phenyl)carbamate] showed an EC50 of over 10 µM.
The same measure, in the same setting: with `CC(C)OC(=O)Nc1ccc(-c2ncc(-c3ccc(N4CCC(Cc5ccccc5)C4=O)cc3S(=O)(=O)NC(C)(C)C)s2)cc1` (stereo not shown) [Compound J28, isopropyl (4-(5-(4-(3-benzyl-2-oxopyrrolidin-1-yl)-2-(N-(tert-butyl)sulfamoyl)phenyl)thiazol-2-yl)phenyl)carbamate] the figure was over 10 µM.
